According to US8986687B2, “Compounds inhibiting CD95 signaling for the treatment of pancreatic cancer” (Deutsches Krebsforschungszentrum, priority 2009, dated 2015):

System: ERK pathway / phosphorylation of ERK
Experiment: Western blotting of ERK phosphorylation in pancreatic cells
Assay type: cell-based
Details: PANC1 and Colo357 cells
Text: Phosphorylation of AKT and ERK is shown in PanD3, PANC1 and Colo357 cells upon treatment with different concentrations of CD95L-T4 at the indicated time points. P: phosphorylated; T: total.
A) Effect of the PI3K and MEK inhibitors (LY2940092 and PD98059 respectively) on CD95-induced phosphorylation of AKT and ERK is shown in PANC1 and Colo357. Inhibition of PI3K enhances ERK phosphorylation. P: phosphorylated; T: total.
It has been known that low concentrations of CD95L are sufficient to efficiently stimulate the non-apoptotic pathways downstream of CD95, being those pathways inhibited by higher concentrations. […]
Knockdown experiments were performed by transient transfection with Lipofectamine 2000™ (Invitrogen Life Technologies) following the instruction manual. […] After transient transfection with the different siRNAs cells were cultured for 72 h before treated with CD95LT4 (20 ng/ml), migration was analyzed 36 h after treatment with a two dimensional migration assay. Knockdown efficiency was controlled by quantitative real-time PCR.
Proteins were transferred from polyacrylamide gels to nitrocellulose membranes by electroblotting. […] The HRP signal was detected by incubation with ECL solution and consecutive exposure to Amersham Hyperfim X-ray films Protein extraction and immunoblotting was performed as previously described. […]

O=c1cc(N2CCOCC2)oc2c(-c3ccccc3)cccc12 [LY2940092]
effect of PI3K inhibition on CD95-induced ERK phosphorylation: enhances
